Among the data in patent US20250129073A1, “INHIBITOR OF RECEPTOR-INTERACTING PROTEIN KINASE 1, AND PREPARATION METHOD AND USE THEREFOR” (CHINA PHARMACEUTICAL UNIVERSITY, priority 2021, published 2025) are inhibition values, retold here.

A word on the inhibition: it is how much of the control response was suppressed.

RIPK1 kinase, sequence (Q13546 whole entry): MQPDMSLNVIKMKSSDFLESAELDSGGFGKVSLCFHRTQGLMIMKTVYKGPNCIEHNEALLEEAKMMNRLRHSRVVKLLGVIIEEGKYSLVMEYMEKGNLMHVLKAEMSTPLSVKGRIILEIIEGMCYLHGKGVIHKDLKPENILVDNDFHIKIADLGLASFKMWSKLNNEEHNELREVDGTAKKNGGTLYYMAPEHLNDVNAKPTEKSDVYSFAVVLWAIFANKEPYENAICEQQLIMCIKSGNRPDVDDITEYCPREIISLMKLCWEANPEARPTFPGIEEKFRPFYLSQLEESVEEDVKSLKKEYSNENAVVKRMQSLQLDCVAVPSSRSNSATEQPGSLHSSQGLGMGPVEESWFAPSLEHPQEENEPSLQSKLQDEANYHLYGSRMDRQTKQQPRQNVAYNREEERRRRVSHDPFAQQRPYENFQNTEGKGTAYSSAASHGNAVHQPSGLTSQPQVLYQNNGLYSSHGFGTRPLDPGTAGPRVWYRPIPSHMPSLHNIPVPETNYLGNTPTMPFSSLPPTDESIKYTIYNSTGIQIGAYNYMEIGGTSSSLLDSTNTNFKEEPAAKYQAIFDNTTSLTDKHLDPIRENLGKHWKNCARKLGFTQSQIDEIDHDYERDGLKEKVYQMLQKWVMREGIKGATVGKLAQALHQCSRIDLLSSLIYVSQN

This assay concerns the target RIPK1 kinase (Homo sapiens (Human), UniProt Q13546). Kind of assay: RIPK1 kinase inhibitory assay (ADP-Glo). To be noted: 10 μM compound; read-out: Inhibition rate of RIPK1 at 10 μM (%). Type of assay: biochemical. How it is done:
Materials and Instruments: ADP-Glo kinase kit (purchased from Promega), RIPK1 GST-Th-Tag (purchased from Bps Bioscience), MBP substrate (purchased from Millipore), nunc 384-well plate, ATP fluorescence analyzer Paradigm detection platform (purchased from Beckman coulter)
The compounds were diluted in DMSO and configured into a solution with a final concentration of 10 mM; Dilute RIP1 kinase from 140 ng/μL to 20 ng/μL for use. Dilute 10 mM of ATP to 100 μM for later use; Dilute 5 mg/mL of MBP to 1 mg/mL for later use. Appropriate embodiments were added into the well of the 384-well plate, 10 μl […] ATP was evenly mixed with 1 μl 1 mg/mL MB P, the mixed solution was added to the well, and 2 μL […] RIP1 kinase was added to the hole, and then incubated at room temperature for 1 h. Subsequently, 5 μL ADP-Glo reagent was added to each well and incubated at room temperature for 40 min. Then, 10 μL ADP-Glo detection reagent was added to each well and incubated at room temperature for 30 min. Finally, the RLU value (relative light unit) of each well was measured by ATP fluorometer, and each sample was repeated twice. Inhibition rate=(RLU value of blank group−RLU value of drug administration group)/RLU value of blank group×100%.
In general terms: ADP-Glo first removes unused ATP, then detects ADP through luciferase.
Regarding `O=C1N(Cc2ccccc2)CCC12CCN(c1ncccn1)CC2` [Compound 36, 2-benzyl-8-(pyrimidin-2-yl)-2,8-diazaspiro[4.5]decan-1-one], the inhibition at 10 µM is greater than 50%.

Take `O=C(c1ccccc1)N1CCC2(CC1)CCN(Cc1cc(F)c(F)cc1F)C2=O` [Compound 41, 8-benzoyl-2-(2,4,5-trifluorobenzyl)-2,8-diazaspiro[4.5]decan-1-one]: the inhibition at 10 µM is greater than 50%. As for `O=C(c1ccc2ccoc2c1)N1CCC2(CC1)CCN(Cc1cc(F)ccc1F)C2=O` [Compound 76, 8-(benzofuran-6-carbonyl)-2-(2,5-difluorobenzyl)-2,8-diazaspiro [4.5]decan-1-one], the inhibition at 10 µM was greater than 50%. Next, `N#Cc1ccnc(N2CCC3(CCN(Cc4cc(F)ccc4F)C3=O)CC2)n1` [Compound 52, 2-(2-(2,5-difluorobenzyl)-1-oxo-2,8-diazaspiro[4.5]decan-8-yl) pyrimidine-4-carbonitrile]: greater than 50%; `O=C(c1ccccc1)N1CCC2(C=NN(Cc3cccc(Cl)c3)C2=O)CC1` [Compound 70, 8-benzoyl-2-(3-chlorobenzyl)-2,3,8-triazaspiro[4.5]dec-3-en-1-one]: 44%. Next, `O=C(c1ccccc1)N1CCC2(C=NN(Cc3cccc(C(F)(F)F)c3)C2=O)CC1` [Compound 68, 8-benzoyl-2-(3-(trifluoromethyl)benzyl)-2,3,8-triazaspiro[4.5]dec-3-en-1-one]: 13%; `O=C(c1ccccc1)N1CCC2(C=NN(Cc3ccccc3)C2=O)CC1` [Compound 62, 8-benzoyl-2-benzyl-2,3,8-triazaspiro[4.5]dec-3-en-1-one]: greater than 50%; `O=C(c1ccccc1)N1CCC2(CC1)CCN(Cc1cccc(F)c1)C2=O` [Compound 32, 8-benzoyl-2-(3-fluorobenzyl)-2,8-diazaspiro[4.5]decan-1-one]: greater than 50%. As for `Cn1cc(C(=O)N2CCC3(CC2)CCN(Cc2ccccc2)C3=O)c2ccccc21` [Compound 27, 2-benzyl-8-(1-methyl-1H-indole-3-carbonyl)-2,8-diazaspiro[4.5]decan-1-one], the figure is 46%; as for `N#Cc1ccc(N2CCC3(CCN(Cc4cc(F)ccc4F)C3=O)CC2)nn1` [Compound 56, 6-(2-(2,5-difluorobenzyl)-1-oxo-2,8-diazaspiro[4.5]decan-8-yl)pyridazine-3-carbonitrile], 17%; as for `O=C(c1ccccc1)N1CCC2(C=NN(Cc3cccc(F)c3)C2=O)CC1` [Compound 64, 8-benzoyl-2-(3-fluorobenzyl)-2,3,8-triazaspiro[4.5]dec-3-en-1-one], greater than 50%. Turning to `O=C(c1ccccc1)N1CCC2(CC1)CCN(Cc1ccc(F)cc1F)C2=O` [Compound 43, 8-benzoyl-2-(2,4-difluorobenzyl)-2,8-diazaspiro[4.5]decan-1-one], the inhibition at 10 µM is greater than 50%.

On to `O=C(c1ccccc1)N1CCC2(CC1)CCN(Cc1cccc(Cl)c1)C2=O` [Compound 10, 8-benzoyl-2-(3-chlorobenzyl)-2,8-diazaspiro[4.5]decan-1-one], for which the inhibition at 10 µM was greater than 50%. As for `COc1cccc(C(=O)N2CCC3(CC2)CCN(Cc2cc(F)ccc2F)C3=O)c1` [Compound 77, 2-(2,5-difluorobenzyl)-8-(3-methoxybenzoyl)-2,8-diazaspiro[4.5]decan-1-one], the figure is greater than 50%; as for `O=C(c1ccccc1)N1CCC2(C=NN(Cc3cc(F)ccc3F)C2=O)CC1` [Compound 66, 8-benzoyl-2-(2,5-difluorobenzyl)-2,3,8-triazaspiro[4.5]dec-3-en-1-one], greater than 50%; as for `Cn1cnc2ccc(C(=O)N3CCC4(CC3)CCN(Cc3ccccc3)C4=O)cc21` [Compound 26, 2-benzyl-8-(1-methyl-1H-benzo[d]imidazole-6-carbonyl)-2,8-diazaspiro[4.5]decan-1-one], 14%.
